Structures can show the parent of a compound that is named as a salt.
System: XBP1s-luc 293 LUC
Experiment: cellular PD assay, XBP1s-LUC reporter (Example 903)
Assay type: cell-based
Conditions: Table 1; read-out: XBP1s-luc 293 LUC (IC50)
Description: Inhibition of IRE1α RNase activity was determined in an enzyme assay that measured cleavage of the XBP1 stem loop by autophosphorylated IRE1α. This assay format was chosen to ensure that inhibitors of either the IRE1α kinase or the RNase domains would be identified. Binding to the ATP pocket and inhibition of IRE1α kinase activity are not necessarily required to inhibit the RNase activity. Compounds were also profiled in cellular assays by direct measurement of XBP s (B-DNA assay) or by quantification of the luciferase signal in HT1080 XBP1-Luc, which carries a luciferase fusion that is only in frame and expressed from the spliced XBP1 transcript.
Biological activity of Formula I or I′ compounds was measured by an IRE1 biochemical binding assay (Example 901), a biochemical RNase assay (Example 902), a cellular PD assay, XBP1s-LUC reporter (Example 903), and an IRE1α-based inhibition of multiple myeloma (MM) cell proliferation assay.
All of the exemplary Formula I or I′ compounds in Tables 1 and 2 were made and characterized by LCMS [M+H]^+ (liquid chromatography mass spectroscopy) with detection of parent ion. All of the exemplary Formula I compounds in Tables 1 and 2 were prepared according to the procedures of the Schemes, General Procedures, and Examples. All of the exemplary Formula I or I′ compounds in Tables 1 and 2 were tested for binding to IRE1 (inositol requiring enzyme 1 alpha) and biological activity according to the assays and protocols of Example 901-903. Exemplary Formula I or I′ compounds in Tables 1 and 2 have the following structures, corresponding IUPAC names (ChemBioDraw, Version 12.0.2, CambridgeSoft Corp., Cambridge Mass.), and biological activity. Where more than one name is associated with a Formula I or I′ compound or intermediate in Tables 1 and 2 and the Experimental Procedures, the chemical structure shall define the compound. Assignment of configuration at chiral centers in separated stereoisomers may be tentative, and depicted in Tables 1 and 2 structures for illustrative purposes, before stereochemistry is definitively established, such as from x-ray crystallographic data. In some cases, stereoisomers are separated and tested for biological activity before the stereochemistry of the separated stereoisomers is determined; and stereochemistry in some instances was inferred based on structure-activity relationship (SAR) knowledge from previous compounds. In some cases, the compounds are tested as racemic or diastereomeric mixtures. Where more than one potency value is entered on a row, separated stereoisomers represented by the structure and name on that row were tested. Exemplary compounds of Formula I or I′ in Table 3 can be prepared using methods known in the art or according to procedures similar to those described in the Schemes, General Procedures, and Examples 101-500. Biological activities of compounds in Table 3 can be tested in biological assays, for example, those in Examples 901, 902 and 903 described herein.

Row | Compound | IC50 [nM]
1 | Cc1ccc2c(NS(=O)(=O)N(C)C)c(F)ccc2c1Oc1ncccc1-c1ccnc(N[C@H]2CCCNC2)n1 [Example 324, 4-[2-[[5-(Dimethylsulfamoylamino)-6-fluoro-2-methyl-1-naphthyl]oxy]-3-pyridyl]-2-[[(3S)-3-piperidyl]amino]pyrimidine] | 45.5
2 | Cc1cc(NS(=O)(=O)Cc2ccccc2)c2ccccc2c1Oc1ncccc1-c1ccnc(N[C@H]2CC[C@H](N)CC2)n1 [Example 110, N-(4-((3-(2-(((1r,4r)-4-aminocyclohexyl)amino)pyrimidin-4-yl)pyridin-2-yl)oxy)-3-methylnaphthalen-1-yl)-1-phenylmethanesulfonamide hydrochloride] | 119
3 | Cc1ccc2c(N3CCC4(CCCCC4)C3=O)cccc2c1Oc1ncccc1-c1ccnc(N[C@H]2CCCNC2)n1 [Example 308, (S)-2-(6-Methyl-5-((3-(2-(piperidin-3-ylamino)pyrimidin-4-yl)pyridin-2-yl)oxy)naphthalen-1-yl)-2-azaspiro[4.5]decan-1-one] | 211
4 | Cc1ccc2c(NC(=O)[C@@H]3C[C@@]3(F)c3ccccc3)cccc2c1Oc1ncccc1-c1ccnc(N[C@H]2CCCNC2)n1 (single isomer, unassigned) [Example 226] | 223
5 | Cc1nc(CNc2c(F)ccc3c(Oc4ncccc4-c4ccnc(N[C@@H]5CNC[C@H](C)C5)n4)c(C)ccc23)cs1 [Example 307, 4-(2-((6-Fluoro-2-methyl-5-(((2-methylthiazol-4-yl)methyl)amino)naphthalen-1-yl)oxy)pyridin-3-yl)-N-((3S,5R)-5-methylpiperidin-3-yl)pyrimidin-2-amine] | 360
6 | CCC(C)C(=O)Nc1cccc2c(Oc3ncccc3-c3ccnc(N[C@H]4CCCNC4)n3)c(C)ccc12 (stereo partly drawn) [Example 182, 2-Methyl-N-(6-methyl-5-((3-(2-(((S)-piperidin-3-yl)amino)pyrimi-din-4-yl)pyridin-2-yl)oxy)naphthalen-1-yl)butanamide] | 154
7 | CCc1cnn(-c2cccc3c(Oc4ncccc4-c4ccnc(N[C@H]5CCCNC5)n4)c(C)ccc23)c1 [Example 290, (S)-4-(2-((5-(4-Ethyl-1H-pyrazol-1-yl)-2-methylnaphthalen-1-yl)oxy)pyridin-3-yl)-N-(piperidin-3-yl)pyrimidin-2-amine] | 409
8 | COC(=O)CNc1cccc2c(Oc3ncccc3-c3ccnc(N[C@H]4CCCNC4)n3)c(C)ccc12 [Example 314, (S)-Methyl 2-((6-methyl-5-((3-(2-(piperidin-3-ylamino)pyrimidin-4-yl)pyridin-2-yl)oxy)naphthalen-1-yl)amino)acetate] | 208
9 | Cc1ccc2c(NC(=O)C3CC3C(C)C)cccc2c1Oc1ncccc1-c1ccnc(N[C@H]2CCCNC2)n1 (single isomer, unassigned) [Example 229] | 454
10 | Cc1cnn(-c2cccc3c(Oc4ncccc4-c4ccnc(N[C@H]5CCCNC5)n4)c(C)ccc23)c1 [Example 207, (S)-4-(2-((2-Methyl-5-(4-methyl-1H-pyrazol-1-yl)naphthalen-1-yl)oxy)pyridin-3-yl)-N-(piperidin-3-yl)pyrimidin-2-amine] | 251
11 | Cc1cc(NS(=O)(=O)Cc2ccccc2)c2ccccc2c1Oc1ncccc1-c1ccnc(N[C@H]2CCCNC2)n1 [Example 163, (S)—N-(3-Methyl-4-((3-(2-(piperidin-3-ylamino)pyrimidin-4-yl)pyridin-2-yl)oxy)naphthalen-1-yl)-1-phenylmethanesulfonamide] | 47
12 | Cc1ccc2c(NC[C@H](O)C(F)(F)F)c(F)ccc2c1Oc1ncccc1-c1ccnc(N[C@H]2CCCNC2)n1 [Example 377, (S)-1,1,1-Trifluoro-3-((2-fluoro-6-methyl-5-((3-(2-((S)-piperidin-3-ylamino)pyrimidin-4-yl)pyridin-2-yl)oxy)naphthalen-1-yl)amino)propan-2-ol] | 10.2
13 | Cc1ccc2c(NC(=O)c3ccccn3)cccc2c1Oc1ncccc1-c1ccnc(N[C@H]2CCCNC2)n1 [Example 175, (S)—N-(6-Methyl-5-((3-(2-(piperidin-3-ylamino)pyrimidin-4-yl)pyridin-2-yl)oxy)naphthalen-1-yl)picolinamide] | 333
14 | Cc1ccc2c(N[C@H](C)[C@@H](C)O)cccc2c1Oc1ncccc1-c1ccnc(N[C@H]2CCCNC2)n1 [Example 381, anti-3-((6-Methyl-5-((3-(2-(((S)-piperidin-3-yl)amino)pyrimidin-4-yl)pyridin-2-yl)oxy)naphthalen-1-yl)amino)butan-2-ol] | 403
15 | Cc1ccc2c(NS(=O)(=O)CCCF)cccc2c1Oc1ncccc1-c1ccnc(N[C@H]2CCCNC2)n1 [Example 118, (S)-3-Fluoro-N-(6-methyl-5-((3-(2-(piperidin-3-ylamino)pyrimidin-4-yl)pyridin-2-yl)oxy)naphthalen-1-yl)propane-1-sulfonamide hydrochloride] | 323
16 | CCCS(=O)(=O)Nc1c(C)ccc2c(Oc3ncccc3-c3ccnc(N[C@H]4CCCNC4)n3)c(C)ccc12 [Example 285, (S)—N-(2,6-Dimethyl-5-((3-(2-(piperidin-3-ylamino)pyrimidin-4-yl)pyridin-2-yl)oxy)Naphthalen-1-yl)propane-1-sulfonamide] | 71
17 | Cc1ccc2c(NC(=O)[C@H]3C[C@@H]3C)cccc2c1Oc1ncccc1-c1ccnc(N[C@H]2CCCNC2)n1 [Example 234, (1S,2S)-2-Methyl-N-(6-methyl-5-((3-(2-(((S)-piperidin-3-yl)amino)pyrimidin-4-yl)pyridin-2-yl)oxy)naphthalen-1-yl)cyclopropane-1-carboxamide] | 111

Same assay, conditions: Table 2; read-out: XBP1s-luc 293 LUC (IC50)

Row | Compound | IC50 [nM]
18 | Cc1ccc2c(N[C@H]3CCC[C@@H]3O)cccc2c1Oc1ncccc1-c1ccnc(N[C@H]2CCCNC2)n1 (single isomer, unassigned) [Example 396, hydrochloride] | 270
19 | COCCCS(=O)(=O)Nc1c(F)ccc2c(Oc3ncccc3-c3ccnc(N[C@H]4CCCNC4)n3)c(C)ccc12 [Example 450, (S)—N-(2-Fluoro-6-methyl-5-((3-(2-(piperidin-3-ylamino)pyrimidin-4-yl)pyridin-2-yl)oxy)naphthalen-1-yl)-3-methoxypropane-1-sulfonamide hydrochloride] | 104
20 | Cc1ccc2c(NS(=O)(=O)N(C)Cc3ccccc3)c(F)ccc2c1Oc1ncccc1-c1ccnc(N[C@H]2CCCNC2)n1 [Example 410, 4-[2-[[5-[[Benzyl(methyl)sulfamoyl]amino]-6-fluoro-2-methyl-1-naphthyl]oxy]-3-pyridyl]-2-[[(3S)-3-piperidyl]amino]pyrimidine hydrochloride] | 87
21 | Cc1nc(CS(=O)(=O)Nc2c(F)ccc3c(Oc4ncccc4-c4ccnc(N[C@H]5CCCNC5)n4)c(C)ccc23)cs1 [Example 411, (S)—N-(2-Fluoro-6-methyl-5-((3-(2-(piperidin-3-ylamino)pyrimidin-4-yl)pyridin-2-yl)oxy)naphthalen-1-yl)-1-(2-methylthiazol-4-yl)methanesulfonamide hydrochloride] | 12
22 | Cc1ccc2c(NS(=O)(=O)Cc3ccccn3)c(F)ccc2c1Oc1ncccc1-c1ccnc(N[C@H]2CCCNC2)n1 [Example 494, (S)—N-(2-Fluoro-6-methyl-5-((3-(2-(piperidin-3-ylamino)pyrimidin-4-yl)pyridin-2-yl)oxy)naphthalen-1-yl)-1-(pyridin-2-yl)methanesulfonamide hydrochloride] | 12.5
23 | Cc1ccc2c(NC[C@@H](O)C3CC3)cccc2c1Oc1ncccc1-c1ccnc(N[C@H]2CCCNC2)n1 (single isomer, unassigned) [Example 488, hydrochloride] | 30
24 | Cc1ccc2c(NS(=O)(=O)CC3CCC3)c(F)ccc2c1Oc1ncccc1-c1ccnc(N[C@H]2CCCNC2)n1 [Example 400, (S)-1-Cyclobutyl-N-(2-fluoro-6-methyl-5-((3-(2-(piperidin-3-ylamino)pyrimidin-4-yl)pyridin-2-yl)oxy)naphthalen-1-yl)methanesulfonamide hydrochloride] | 26
25 | Cc1ccc2c(NS(=O)(=O)N(C)CC(F)(F)F)c(F)ccc2c1Oc1ncccc1-c1ccnc(N[C@H]2CNC[C@H](F)C2)n1 (single isomer, unassigned) [Example 499, hydrochloride] | 680
26 | Cc1ccc2c(NC(=O)C[C@@H](O)C(F)(F)F)cccc2c1Oc1ncccc1-c1ccnc(N[C@H]2CCCNC2)n1 (single isomer, unassigned) [Example 436] | 75

Reference: patent publication US10968203B2, “Pyrimidinyl-pyridyloxy-naphthyl compounds and methods of treating IRE1-related diseases and disorders” (Genentech, Inc., priority 2017, dated 2021)
